Consider two compounds from paper PMC4310642 (Journal of Medicinal Chemistry, 2014).

Structures are written as SMILES.

Assay [1] addresses PKCδ C1b domain N7R/S10R/L20R triple mutant (Mus musculus, UniProt P28867, L250R/N237R/S240R). The assay can be described thus: Competitive [20-3H]PDBu binding to GST-C1b domain, N7R/S10R/L20R.
For assay [2], the system named is PKCδ C1b domain S10R mutant. The assay is classed as binding.
The target of assay [3] is PKCδ C1b domain N7R mutant (Mus musculus, UniProt P28867, N237R). The assay can be described thus: Competitive [20-3H]PDBu binding to GST-C1b domain, N7R.
Assay [4] concerns the target PKCδ C1b domain P11R mutant (Mus musculus, UniProt P28867, P241R). Briefly: Competitive [20-3H]PDBu binding to GST-C1b domain, P11R.

Sequence of PKCδ C1b domain N7R mutant (P28867 230-280 N237R): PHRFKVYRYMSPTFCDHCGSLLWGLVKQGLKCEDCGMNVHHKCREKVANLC
Sequence of PKCδ C1b domain P11R mutant (P28867 230-280 P241R): as the sequence (P28867 230-280 N237R) above, with R8N, P12R counted along it
Sequence of PKCδ C1b domain N7R/S10R/L20R triple mutant (P28867 230-280 N237R/S240R/L250R): as the sequence (P28867 230-280 N237R) above, with S11R, L21R counted along it

With `CC(C)CC(C/C=C1\CC(CO)(COC(=O)C(C)(CO)CO)OC1=O)CC(C)C` (stereo not shown) [13-E], the “reduction in binding affinity with the triple mutant N7R/S10R/L20R compared to the wild-type” value in assay [1] is “no further loss of affinity”.

`CCCC(=O)O[C@@H]1[C@@H](C)[C@@]2(O)[C@@H](C=C(CO)C[C@]3(O)C(=O)C(C)=C[C@@H]23)[C@@H]2C(C)(C)[C@]12OC(=O)CCC` [PDBu, phorbol 12,13-dibutyrate]: the “binding to S10R compared to the wild-type δC1B domain” value in assay [2] is reported as “essentially the same”. The “binding to N7R weaker than to the wild-type δC1B domain” value in assay [3] was “about 5 fold”. For the same compound, the “binding to P11R weaker than to the wild-type δC1B domain” value in assay [4] is “about 5 fold”.
